How the values were obtained:
[1] = Phase 1 clinical trials; cited from earlier work
[2] = system: HCT116 (MTAP del) cell line; experiment: Cell proliferation inhibition in MTAP-deficient cancer cells, WST-1 assay; format: cell-based; conditions: Homo sapiens, HCT-116, 120 hours of drug treatment, maximum concentration 10 µM, read-out: HCT116 MTAP^-/- (IC50, cell proliferation inhibited by 50%)
In short: (§1)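 HCT116 MTAP-deleted and isogenic MTAP wild-type cells (1,000 cells/well, 10% FBS RPMI1640) attached 24 h, then treated with 4-fold dilutions from 10 µM for 120 hours. WST-1 added 2 hours, absorbance at 450 nm, normalized to DMSO control as 100%; IC50 from 4-parameter dose-response fit.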

[3] = system: HCT116 (MTAP WT) cell line; experiment: Cell proliferation inhibition in wild-type control cells, WST-1 assay; format: cell-based; conditions: Homo sapiens, HCT-116, 120 hours of drug treatment, maximum concentration 10 µM, read-out: HCT116 WT (IC50, cell proliferation inhibited by 50%)
In short: as §1

MAT2A = target: T1, MAT2A (Homo sapiens, UniProt P31153); experiment: MAT2A inhibitory activity, colorimetric phosphate detection (PiColorLock) enzyme assay; format: biochemical; conditions: Test Condition 1 or 2 (not stated which per compound); absorbance at 630 nm
T1 construct: purchased BPS Bioscience (USA) 71401
T1 sequence (P31153 whole entry): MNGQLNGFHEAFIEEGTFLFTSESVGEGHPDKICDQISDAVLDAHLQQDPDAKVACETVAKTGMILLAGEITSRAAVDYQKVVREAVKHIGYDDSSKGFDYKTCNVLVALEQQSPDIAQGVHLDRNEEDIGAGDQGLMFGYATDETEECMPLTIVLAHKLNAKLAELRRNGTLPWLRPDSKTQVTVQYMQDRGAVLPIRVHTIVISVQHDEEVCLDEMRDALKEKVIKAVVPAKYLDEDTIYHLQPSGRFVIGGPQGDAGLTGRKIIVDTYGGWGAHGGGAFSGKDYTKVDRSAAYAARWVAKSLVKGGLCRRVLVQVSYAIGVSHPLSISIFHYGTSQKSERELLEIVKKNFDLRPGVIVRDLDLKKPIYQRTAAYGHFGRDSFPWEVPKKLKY
In short: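 Compound preincubated 30 min at room temperature with enzyme, then reacted 1 h with ATP and Met; phosphate read colorimetrically at 630 nm. Condition 1: top 50 µM, 12 ng/µL enzyme, 100 µM ATP, 80 µM Met. Condition 2: top 1 µM, 4 ng/µL enzyme, 300 µM ATP, 150 µM Met. Tris pH 8.0 buffer; IC50 by 4-parameter fit.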

Row | IC50 [2] | IC50 [3] | IC50 (MAT2A) | SMILES | hepatotoxicity [1]
1 | 1 to 100 nM | > 10 µM | 1 to 100 nM | CNc1cc(Cl)cc2c1n1ccnc1c(=O)n2-c1cccnc1C [Example 105, 7-chloro-9-(methylamino)-5-(2-methylpyridin-3-yl)imidazo[1,2-a]quinoxalin-4(5H)-one] | –
2 | > 10000 nM | > 10 µM | 1 to 100 nM | COc1ncccc1-n1c(=O)c2nccn2c2cc(Cl)c(Br)cc21 [Example 107, 7-bromo-8-chloro-5-(2-methoxypyridin-3-yl)imidazo[1,2-a]quinoxalin-4(5H)-one] | –
3 | 100 to 1000 nM | 1 to 10 µM | 1 to 100 nM | O=c1c2nccn2c2cc(Cl)c(Br)cc2n1-c1cccc2ncsc12 [Example 108, 5-(benzo[d]thiazol-7-yl)-7-bromo-8-chloroimidazo[1,2-a]quinoxalin-4(5H)-one] | –
4 | 100 to 1000 nM | > 10 µM | 1 to 100 nM | O=c1c2nccn2c2cc(Cl)c(Br)cc2n1-c1cccc2[nH]ccc12 [Example 109, 7-bromo-8-chloro-5-(1H-indol-4-yl)imidazo[1,2-a]quinoxalin-4(5H)-one] | –
5 | 1 to 100 nM | > 10 µM | 1 to 100 nM | COc1cc(C(F)(F)F)cc2c1n1ccnc1c(=O)n2-c1cccnc1C [Example 113, 9-methoxy-5-(2-methylpyridin-3-yl)-7-(trifluoromethyl)imidazo[1,2-a]quinoxalin-4(5H)-one] | –

The next lines start with the compound.

Row | SMILES | IC50 [2] | IC50 [3] | IC50 (MAT2A) | hepatotoxicity [1]
6 | COc1ccc(-c2c(Nc3ccccn3)[nH]c3c(C4=CCCCC4)c(-c4ccccc4)nn3c2=O)cc1 [AG-270] | – | – | – | hepatotoxicity associated with inhibition of UGT1A1
7 | Cc1ncccc1-n1c(=O)c2nccn2c2c(F)cc(Cl)cc21 [Example 101, 7-chloro-9-fluoro-5-(2-methylpyridin-3-yl)imidazo[1,2-a]quinoxalin-4(5H)-one] | 1 to 100 nM | > 10 µM | 1 to 100 nM | –
8 | COc1cc(Cl)cc2c1n1ccnc1c(=O)n2-c1cccnc1C [Example 102, 7-chloro-9-methoxy-5-(2-methylpyridin-3-yl)imidazo[1,2-a]quinoxalin-4(5H)-one] | 1 to 100 nM | > 10 µM | 1 to 100 nM | –
9 | Cc1ncccc1-n1c(=O)c2nccn2c2c(OCC3CC3)cc(Cl)cc21 [Example 103, 7-chloro-9-(cyclopropylmethoxy)-5-(2-methylpyridin-3-yl)imidazo[1,2-a]quinoxalin-4(5H)-one] | 1 to 100 nM | > 10 µM | 1 to 100 nM | –
10 | CCc1ncccc1-n1c(=O)c2nccn2c2cc(Cl)c(C(F)(F)F)cc21 [Example 110, 8-chloro-5-(2-ethylpyridin-3-yl)-7-(trifluoromethyl)imidazo[1,2-a]quinoxalin-4(5H)-one] | > 10000 nM | > 10 µM | 1 to 100 nM | –
